These results are taken from PubChem BioAssay (NCI).

Test systems include MALME-3M melanoma; SF-539 CNS; MDA-MB-231 breast; RPMI-8226 leukemia; M14 melanoma; T-47D breast; OVCAR-5 ovarian; COLO 205 colon; DU-145 prostate; KM12 colon; HCT-15 colon; NCI/ADR-RES ovarian; MDA-N; NCI-H522 lung; CCRF-CEM leukemia; PC-3 prostate; A498 renal; UACC-62 melanoma; SR leukemia; NCI-H460 lung.
Test in all cases: NCI-60 cell line screen, 48 h

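Results reflect a 48-hour exposure of cells in 96-well plates to compound at five concentrations. TGI: concentration producing complete growth inhibition.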

As to `COc1cc(C)c(/C=C/C(=O)N2C(=O)OC[C@@H]2c2ccccc2)c(C)c1`, the TGI in the experiment with MALME-3M melanoma was above 100 µM; in the experiment with SF-539 CNS, above 100 µM; in the experiment with MDA-MB-231 breast, above 100 µM; with RPMI-8226 leukemia, above 100 µM; in the experiment with M14 melanoma it was above 100 µM; in the experiment on T-47D breast it was 74.1 µM. Further, the TGI in the experiment with OVCAR-5 ovarian, in the experiment on COLO 205 colon, in the experiment with DU-145 prostate, in the experiment with KM12 colon, in the experiment on HCT-15 colon and with NCI/ADR-RES ovarian was above 100 µM throughout. The TGI in the experiment with MDA-N, in the experiment on NCI-H522 lung, with CCRF-CEM leukemia, in the experiment with PC-3 prostate and with A498 renal was above 100 µM throughout.
Turning to `[O-][n+]1onc2c1CCC(=N\O)/C2=N/Nc1ccccc1`, the TGI in the experiment with MALME-3M melanoma, in the experiment on SF-539 CNS, in the experiment with UACC-62 melanoma, with MDA-MB-231 breast, in the experiment on RPMI-8226 leukemia and with M14 melanoma was above 100 µM in each case. In addition, the TGI in the experiment on OVCAR-5 ovarian, in the experiment with COLO 205 colon, in the experiment on DU-145 prostate, in the experiment on KM12 colon, with HCT-15 colon and in the experiment with NCI/ADR-RES ovarian was above 100 µM throughout. Moreover, the TGI in the experiment on SR leukemia, in the experiment with MDA-N, in the experiment with NCI-H522 lung, in the experiment on CCRF-CEM leukemia, in the experiment with PC-3 prostate and in the experiment on A498 renal was above 100 µM in each case. In the experiment with NCI-H460 lung, this molecule had a TGI above 100 µM.
For the molecule `CCCCc1c2c(nc3c1CCCC3O)CCCC2` (stereo not given), the TGI in the experiment on MALME-3M melanoma, in the experiment on SF-539 CNS, with UACC-62 melanoma, in the experiment with MDA-MB-231 breast, in the experiment with RPMI-8226 leukemia and in the experiment with M14 melanoma was above 100 µM each time. Besides, the TGI with OVCAR-5 ovarian, in the experiment with COLO 205 colon, in the experiment on DU-145 prostate, in the experiment on KM12 colon, in the experiment with HCT-15 colon and in the experiment on NCI/ADR-RES ovarian was above 100 µM each time. Further, the TGI with SR leukemia, in the experiment on MDA-N, in the experiment on NCI-H522 lung, in the experiment on CCRF-CEM leukemia, in the experiment with PC-3 prostate and with A498 renal was above 100 µM in each case. The molecule also came in with a TGI with NCI-H460 lung above 100 µM.
Turning to `Cc1nc2ccc(S(=O)(=O)Nc3ccccc3)cc2c(=O)n1NC(=O)CNc1ccccc1`, the TGI with MALME-3M melanoma, with SF-539 CNS, in the experiment with UACC-62 melanoma, in the experiment with MDA-MB-231 breast, in the experiment on RPMI-8226 leukemia and with M14 melanoma was above 100 µM in each case. The TGI in the experiment on OVCAR-5 ovarian, in the experiment on COLO 205 colon, in the experiment on DU-145 prostate, in the experiment on KM12 colon, in the experiment on HCT-15 colon and in the experiment with NCI/ADR-RES ovarian was above 100 µM throughout. For the same molecule, the TGI with SR leukemia, in the experiment with MDA-N, with NCI-H522 lung, with CCRF-CEM leukemia, in the experiment with PC-3 prostate and with NCI-H460 lung was above 100 µM in each case.
Turning to `O/C(=C\c1nc2ccccc2nc1/C=C(\O)c1ccc(Cl)cc1)c1ccccc1`, the TGI in the experiment with MALME-3M melanoma, in the experiment with SF-539 CNS, with UACC-62 melanoma, in the experiment with MDA-MB-231 breast, in the experiment on RPMI-8226 leukemia and in the experiment with M14 melanoma was above 100 µM throughout. Further, the TGI in the experiment on T-47D breast, with OVCAR-5 ovarian, in the experiment with COLO 205 colon, in the experiment on DU-145 prostate, in the experiment with KM12 colon and with HCT-15 colon was above 100 µM each time. Besides, the TGI with NCI/ADR-RES ovarian, with SR leukemia, in the experiment with NCI-H522 lung, with CCRF-CEM leukemia, with PC-3 prostate and in the experiment on A498 renal was above 100 µM each time. The TGI with NCI-H460 lung was above 100 µM.
For the molecule `O=C(CCc1ccccc1)ON1C(=S)NC(c2ccccc2)(c2ccccc2)C1=S`, the TGI is 71.5 µM in the experiment with MALME-3M melanoma; above 100 µM in the experiment with SF-539 CNS; above 100 µM with UACC-62 melanoma; above 100 µM in the experiment with MDA-MB-231 breast; 80.4 µM in the experiment on RPMI-8226 leukemia; above 100 µM with M14 melanoma. The TGI in the experiment on T-47D breast is above 100 µM; with OVCAR-5 ovarian it was above 100 µM; in the experiment with COLO 205 colon it was above 100 µM; in the experiment with DU-145 prostate, above 100 µM; with KM12 colon it was 89.7 µM; with HCT-15 colon it was above 100 µM. Further, the TGI with NCI/ADR-RES ovarian is above 100 µM; in the experiment on MDA-N, above 100 µM; in the experiment with CCRF-CEM leukemia, 93.4 µM; in the experiment on PC-3 prostate, 63.8 µM; in the experiment with A498 renal, above 100 µM; with NCI-H460 lung, above 100 µM.
Take `O=C1SS(=O)c2ccccc21` (stereo not given): the TGI with MALME-3M melanoma, in the experiment on SF-539 CNS, with UACC-62 melanoma, in the experiment on MDA-MB-231 breast, in the experiment on RPMI-8226 leukemia and in the experiment with M14 melanoma was above 100 µM each time. Moreover, the TGI in the experiment on OVCAR-5 ovarian, in the experiment on COLO 205 colon, in the experiment on DU-145 prostate, in the experiment on KM12 colon, in the experiment on HCT-15 colon and with NCI/ADR-RES ovarian was above 100 µM each time. Moreover, the TGI in the experiment on SR leukemia, with MDA-N, in the experiment with NCI-H522 lung, in the experiment on CCRF-CEM leukemia, in the experiment on PC-3 prostate and with A498 renal was above 100 µM throughout. Moreover, in the experiment on NCI-H460 lung, the TGI is above 100 µM.
On to `c1ccc(Cc2nc(Cc3n[nH]c(Cc4ccccc4)n3)n[nH]2)cc1`, for which the TGI in the experiment with SF-539 CNS, in the experiment on UACC-62 melanoma, with MDA-MB-231 breast, in the experiment on RPMI-8226 leukemia, in the experiment on M14 melanoma and in the experiment on OVCAR-5 ovarian was above 100 µM each time. The TGI in the experiment with COLO 205 colon, in the experiment with DU-145 prostate, in the experiment on KM12 colon, with HCT-15 colon, in the experiment with NCI/ADR-RES ovarian and in the experiment with SR leukemia was above 100 µM in each case. The TGI in the experiment on MDA-N, in the experiment on NCI-H522 lung, in the experiment on CCRF-CEM leukemia and with PC-3 prostate was above 100 µM in each case.
